From ChEMBL document CHEMBL2429766, “Keap calm, and carry on covalently” (J Med Chem, 2013)

Columns and labels:
[1] = biological target: NAD(P)H dehydrogenase [quinone] 1 (Mus musculus) (UniProt Q64669); experiment: Induction of NQO1 activity in mouse hepatoma cells; assay type: cell-based
[2] = Antiinflammatory activity in mouse macrophages assessed as inhibition of IFN-gamma-induced nitric oxide production after 48 hrs by Griess method; assay type: functional, cell-based; settings: Macrophage
[3] = biological target: NAD(P)H dehydrogenase [quinone] 1 (Mus musculus) (UniProt Q64669); experiment: Induction of NQO1 activity in mouse Hepa-1c1c7 cells after 48 hrs by Prochaska method; assay type: cell-based
[4] = Cytotoxicity against mouse Hepa-1c1c7 cells after 48 hrs; assay type: cell-based; settings: read-out: LD50

Sequence of NAD(P)H dehydrogenase [quinone] 1 (Mus musculus) (Q64669 whole entry): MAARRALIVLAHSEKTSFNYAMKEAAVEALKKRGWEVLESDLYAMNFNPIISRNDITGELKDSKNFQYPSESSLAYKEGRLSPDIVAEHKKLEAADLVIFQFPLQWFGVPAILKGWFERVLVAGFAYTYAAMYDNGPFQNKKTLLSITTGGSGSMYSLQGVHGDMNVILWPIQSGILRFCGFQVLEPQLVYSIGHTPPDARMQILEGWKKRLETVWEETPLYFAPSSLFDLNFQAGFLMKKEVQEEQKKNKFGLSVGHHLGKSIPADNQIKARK

**Q.** Which CD [1] does the source give for `CS(=O)(=O)[C@H]1CC2CC1[C@H](N=C=S)C2` (relative stereo) here?
**A.** The CD was 0.2 µM.

**Q.** For `CC1(C)CC[C@]2(C(=O)O)CC[C@]3(C)[C@H](C(=O)C=C4[C@@]5(C)C=CC(=O)C(C)(C)[C@@H]5CC[C@]43C)[C@@H]2C1`, which IC50 [2] is on record?
**A.** Its IC50 is 0.17 µM.

**Q.** Which CD [3] does the source give for `CC[S+]([O-])C(=O)N(CCCC[S+](C)[O-])c1ccccc1` (stereo not given) here?
**A.** The CD was 43 µM.

**Q.** What about the CC50 at 48 h [4] of the same molecule?
**A.** Its CC50 at 48 h is greater than 200 µM.

**Q.** Which CD [3] does the source give for `CC[S+]([O-])C(=O)N(CCCC[S+](C)[O-])Cc1ccc(-c2ccccc2)cc1` (stereo not given) here?
**A.** Its CD is 2.8 µM.

**Q.** What about the CC50 at 48 h [4] of the same molecule?
**A.** Its CC50 at 48 h is 16 µM.

**Q.** Which CD [3] does the source give for `CC[S+]([O-])C(=O)N(CCCC[S+](C)[O-])Cc1ccc(C(C)(C)C)cc1` (stereo not given) here?
**A.** Its CD is 3.8 µM.

**Q.** What about the CC50 at 48 h [4] of the same molecule?
**A.** The CC50 at 48 h was 32 µM.

**Q.** With `CSC(=O)CCCCN=C=S` as the molecule, how does the CD [1] read?
**A.** The CD was 2.8 µM.

**Q.** Which results are given for `CC[S+]([O-])C(=O)N(CCCC[S+](C)[O-])Cc1ccccc1` (stereo not given)?
**A.** CD [3]: 13 µM; CC50 at 48 h [4]: > 200 µM

**Q.** With `N#C[C@H]1CC2CC1C[C@@H]2N=C=S` (stereo not given in full) as the molecule, how does the CD [1] read?
**A.** The CD was 0.6 µM.

**Q.** Which CD [3] does the source give for `CC[S+]([O-])C(=O)N(C)CCCC[S+](C)[O-]` (stereo not given) here?
**A.** The CD was 94 µM.

**Q.** What about the CC50 at 48 h [4] of the same molecule?
**A.** Its CC50 at 48 h is greater than 200 µM.

**Q.** For `CC1(C)CC[C@]2(C(=O)O)CC[C@]3(C)C(=CC(=O)[C@@H]4[C@@]5(C)C=CC(=O)C(C)(C)[C@@H]5CC[C@]43C)[C@@H]2C1`, which IC50 [2] is on record?
**A.** Its IC50 is 1.4 µM.

**Q.** With `COC(=O)[C@H]1CC2CC1C[C@@H]2N=C=S` (stereo not given in full) as the molecule, how does the CD [1] read?
**A.** Its CD is 0.7 µM.

**Q.** Which CD [1] does the source give for `CC(=O)[C@@H]1CC2CC1[C@H](N=C=S)C2` (relative stereo) here?
**A.** The CD was 0.8 µM.

**Q.** For `CP(C)(=O)CCCCN=C=S`, which CD [1] is on record?
**A.** The CD was 0.4 µM.

**Q.** Which CD [1] does the source give for `CS(=O)(=O)[C@H]1CC2CC1C[C@@H]2N=C=S` (stereo not given in full) here?
**A.** The CD was 0.7 µM.

**Q.** With `CC(O)[C@H]1CC2CC1C[C@@H]2N=C=S` (stereo not given in full) as the molecule, how does the CD [1] read?
**A.** The CD was 0.5 µM.

**Q.** Which CD [3] does the source give for `CCCN(CCCC[S+](C)[O-])C(=O)[S+]([O-])CC` (stereo not given) here?
**A.** Its CD is 35 µM.

**Q.** And the CC50 at 48 h [4]?
**A.** The CC50 at 48 h was greater than 200 µM.

**Q.** With `CC1(C)CC[C@]2(C(=O)O)CC[C@]3(C)C(=CC[C@@H]4[C@@]5(C)CC[C@H](O)C(C)(C)[C@@H]5CC[C@]43C)[C@@H]2C1` [OLEANOLIC_ACID] as the molecule, how does the IC50 [2] read?
**A.** Its IC50 is greater than 40 µM.

**Q.** Which CD [1] does the source give for `N#CCCCCN=C=S` here?
**A.** The CD was 2 µM.

**Q.** Which CD [1] does the source give for `CS(=O)(=O)[C@@H]1CCC[C@@H](CN=C=S)C1` (relative stereo) here?
**A.** Its CD is 0.5 µM.

**Q.** Which IC50 [2] does the source give for `CC1(C)CC[C@]2(C(=O)O)CC[C@]3(C)[C@H](C(=O)C=C4[C@@]5(C)C=C(C#N)C(=O)C(C)(C)[C@@H]5CC[C@]43C)[C@@H]2C1` [BARDOXOLONE] here?
**A.** The IC50 was 0.0004 µM.

**Q.** Which CD [3] does the source give for `CC[S+]([O-])C(=O)N(CCCC[S+](C)[O-])Cc1cccc2ccccc12` (stereo not given) here?
**A.** Its CD is 5.3 µM.

**Q.** And the CC50 at 48 h [4]?
**A.** The CC50 at 48 h was greater than 50 µM.

**Q.** With `O=C(O)CCCCN=C=S` as the molecule, how does the CD [1] read?
**A.** The CD was 2.2 µM.

**Q.** With `O=[N+]([O-])[C@H]1CC2CC1C[C@@H]2N=C=S` (stereo not given in full) as the molecule, how does the CD [1] read?
**A.** The CD was 1.1 µM.

**Q.** Which results are given for `CC[S+]([O-])C(=O)N(CCCC[S+](C)[O-])C1CCCCC1` (stereo not given)?
**A.** CD [3]: 64 µM; CC50 at 48 h [4]: > 200 µM

**Q.** Which CD [1] does the source give for `CS(=O)(=O)[C@@H]1CCC[C@H](CN=C=S)C1` (relative stereo) here?
**A.** Its CD is 0.4 µM.

**Q.** For `CC(=O)[C@H]1CC2CC1C[C@@H]2N=C=S` (stereo not given in full), which CD [1] is on record?
**A.** The CD was 0.4 µM.

**Q.** For `CCCCC(=O)CCCCN=C=S`, which CD [1] is on record?
**A.** Its CD is 2 µM.

**Q.** With `C[S@+]([O-])CCCCN=C=S` as the molecule, how does the CD [1] read?
**A.** Its CD is 0.2 µM.

**Q.** For `CC(=O)[C@H]1CC2CC1[C@H](N=C=S)C2` (relative stereo), which CD [1] is on record?
**A.** Its CD is 0.3 µM.

**Q.** Which IC50 [2] does the source give for `CC1(C)CC[C@]2(C(=O)O)CC[C@]3(C)C(=CC[C@H]4C3(C)CC[C@H]3C(C)(C)C(=O)C(O)=C[C@@]34C)[C@@H]2C1` (single isomer, unassigned) here?
**A.** Its IC50 is 37 µM.

**Q.** With `CS(=O)(=O)[C@H]1CC[C@@H](N=C=S)CC1` as the molecule, how does the CD [1] read?
**A.** Its CD is 0.4 µM.

**Q.** With `CC1(C)CC[C@]2(C(=O)O)CC[C@]3(C)C(=CC[C@@H]4[C@@]5(C)C=CC(=O)C(C)(C)[C@@H]5CC[C@]43C)[C@@H]2C1` as the molecule, how does the IC50 [2] read?
**A.** Its IC50 is 7.1 µM.

**Q.** With `CC[S+]([O-])C(=O)N(CCCC[S+](C)[O-])Cc1ccc(F)cc1F` (stereo not given) as the molecule, how does the CD [3] read?
**A.** The CD was 7.3 µM.

**Q.** What about the CC50 at 48 h [4] of the same molecule?
**A.** Its CC50 at 48 h is greater than 50 µM.

**Q.** With `O[C@@H]1CC2CC1C[C@@H]2N=C=S` (stereo not given in full) as the molecule, how does the CD [1] read?
**A.** The CD was 19 µM.

**Q.** Which CD [1] does the source give for `CCCCCCN=C=S` here?
**A.** The CD was 15 µM.

**Q.** Which CD [3] does the source give for `CC[S+]([O-])C(=O)N(CCCC[S+](C)[O-])C1CC1` (stereo not given) here?
**A.** The CD was 43 µM.

**Q.** What about the CC50 at 48 h [4] of the same molecule?
**A.** Its CC50 at 48 h is greater than 200 µM.

**Q.** With `CC(=O)CCCCN=C=S` as the molecule, how does the CD [1] read?
**A.** The CD was 0.2 µM.

**Q.** For `COC(=O)[C@H]1CC2CC1[C@H](N=C=S)C2` (stereo not given in full), which CD [1] is on record?
**A.** Its CD is 1.6 µM.

**Q.** For `COC(=O)CCCCN=C=S`, which CD [1] is on record?
**A.** Its CD is 2.8 µM.

**Q.** For `CS(=O)(=O)[C@@H]1CC2CC1[C@H](N=C=S)C2` (relative stereo), which CD [1] is on record?
**A.** Its CD is 1 µM.
